Test results taken from paper PMC12592502, “Unraveling the mechanisms behind the enhanced efficacy of β-lactam-based sideromycins” (Communications Biology, 2025).
Converted amounts (≈) assume the structure as drawn. Like-named read-outs stand apart in the source and are kept apart here.

What was measured:
[1] = system: E. coli MC4100; assay: MIC; format: cell-based, Escherichia coli; details: MC4100, MHBCA
Method: (§1) All bacterial strains (see description and sources Table S1) were stored at −80 °C, and grown on tryptone soya agar (TSA) at 35 °C. The iron-deprived (ID)-MHBCA (cation-adjusted Muller-Hinton Broth, Becton Dickinson, Mississauga, ON, Canada) medium was prepared as reported by refs. [21],[50]. Briefly, MHBCA was treated with 10% Chelex® 50-100 mesh (Sigma) and stirred for 6 h at room temperature. The resin was removed by filtration. Divalent Ca^2+ (CaCl2), Mg^2+ (MgCl2), and Zn^2+(ZnSO4), were then added in the iron-depleted medium at 22, 12, and 1 μg/ml respectively. Finally, the pH was adjusted to 7.3, and the medium was sterilized with a 0.2-μm filter. Regular MHBCA (i.e., not treated with Chelex®) was used to compare the inhibitory activity of conjugates in iron-sufficient conditions.
(§2) Minimal inhibitory concentrations (MICs) were performed using a broth microdilution technique according to the Clinical and Laboratory Standards Institute (CLSI) guidelines. MICs were determined in MHBCA and in ID-MHBCA. To check the impact of β-lactamases, MICs in the presence of a β-lactamase inhibitor were also determined. The inhibitor was homogenized at 2X the final concentration and added to the bacterial inoculum just before distributing cells into the wells containing the drug dilutions. The final concentration of each inhibitor was 4 μg/mL for clavulanic acid (tested against K. pneumoniae) and 200 μg/mL for 3-aminophenylboronic acid (tested against P. aeruginosa and A. baumannii).

[2] = system: E. coli lptD4213; assay: MIC, hyperpermeable mutant; format: cell-based, Escherichia coli; details: lptD4213, MHBCA (+)
Method: as §1, with “conditions. The resin used for Chelex treatment was always fresh and had never been regenerated, ensuring consistent iron removal.” for “conditions.”
as §2

[3] = system: E. coli ΔacrAB; assay: MIC, efflux pump mutant; format: cell-based, Escherichia coli
Method: as §2

[4] = system: P. aeruginosa ATCC 27853; assay: MIC, broth microdilution (CLSI); format: cell-based, Pseudomonas aeruginosa; details: MHBCA; for MIC in combination with PAβN (control antibiotics): + 25 µg/mL PAβN
Method: as §1, §2

[5] = system: E. coli PBP3; parameters: method as in PMID 29061741; details: cited from earlier work
[6] = system: P. aeruginosa 2302 MexAB, MexCD, MexEF upregulated; assay: MIC, efflux pump overexpressing strain; format: cell-based, Pseudomonas aeruginosa; details: Pseudomonas aeruginosa
Method: as §2

[7] = system: P. aeruginosa 1625 ΔmexAB-oprM, ΔmexEF-oprN; assay: MIC, efflux pump mutant; format: cell-based, Pseudomonas aeruginosa; details: Pseudomonas aeruginosa
Method: as §2

[8] = molecular target: AmpC (PDC-5) (Pseudomonas aeruginosa, UniProt P24735, R79Q/T105A); assay: biochemical; format: biochemical, P. aeruginosa ATCC 27853; details: n = 2
Method: The purification of AmpC from the culture supernatant obtained above was conducted as described in the Catwright and Waley protocol[52] using an Affi-gel 10 matrix (Bio-Rad, Hercules, CA, USA) loaded in a column (G-Bioscience, St-Louis, MO, USA). First, the resin was washed with cold deionized water. The resin was then collected and mixed with 20 mL of the 3-aminophenylboronic acid solution (1 M KHCO3 containing 2 g of 3-aminophenyl boronic acid and 2 g of sorbitol) at 4 °C for 1 h, and the pH was maintained at 8 with solid KHCO3. The mixture was loaded onto the column and washed with 10 column volumes of 1 M NaCl/0.5 M sorbitol (pH 7), followed by 10 column volumes of 0.5 M borate (pH 7), and then 10 column volumes of the loading buffer (20 mM triethanolamine HCl/0.5 M NaCl, pH 7). The sample was dialyzed in the loading buffer before being loaded onto the column. The column was washed with the loading buffer until no absorbance was measured at OD280. AmpC was eluted in fractions of 1 mL with 0.5 M borate/0.5 M NaCl pH 7. […] The purity was visualized on a 10% bis-acrylamide gel. Only pure fractions showing a single band at 40 kDa were pooled together and then dialyzed at 4 °C in a KP buffer 0.05 M pH 7 (see Fig. S2). The protein concentration was determined with a Bradford protein reagent (Bio-Rad).
(§3) Enzyme concentrations were 20 nM for AmpC and SHV-1, and 50 nM for OXA-98. Quartz cuvette (FireflySci Inc., Northport, NY) with 1 cm length path and 2 mm inside width was used with an Ultrospec 2100 Pro (Biochrom, Harvard Bioscience Inc., USA) to acquire the kinetic measures. […] The following extinction coefficients (Δε) and wavelengths (λ) were used:
(§4) The steady-state parameters (Km and Kcat) were determined by plotting the initial velocity against substrate concentrations (Michaelis–Menten curve). The Kcat was measured using the Vmax (μM/sec) divided by the total enzyme concentration and the catalytic efficiency was further calculated (Kcat/Km). SHV-1 parameters were determined with three Michaelis–Menten curves of at least seven substrate concentrations, while OXA-98 and AmpC were duplicates of curves of at least seven substrate concentrations. […] Initial velocities were measured at room temperature (25 °C). The Vmax and Km were calculated using least squares fit regression in GraphPad version 10.2.2. Ki was measured using a derivative of IC50 with an adaptation of the Cheng–Prusoff equation[55]. […] The corrected Ki was calculated using this formula: Kicorrected=Ki(observed)/1+S/KmNCF

[9] = system: O=C(Cc1cccs1)N[C@@H]1C(=O)N2C(C(=O)O)=C(/C=C/c3ccc([N+](=O)[O-])cc3[N+](=O)[O-])CS[C@H]12; assay: purified protein, by the assay type; details: other: Michaelis–Menten curves, n = 3, 25 °C, pH 7.0
[10] = system: CC1(C)S[C@@H]2[C@H](NC(=O)[C@H](N)c3ccccc3)C(=O)N2[C@H]1C(=O)O; assay: purified protein, by the assay type; details: other: Michaelis–Menten curves, n = 3, 25 °C, pH 7.0
[11] = system: O=C(Cc1cccs1)N[C@@H]1C(=O)N2C(C(=O)O)=C(/C=C/c3ccc([N+](=O)[O-])cc3[N+](=O)[O-])CS[C@H]12; assay: purified protein, by the assay type; format: biochemical, A. baumannii ATCC 19606; details: other: 20 mM NaHCO3 added, NH = no hydrolysis detected, pH 7.0
Method: as §3, §4

[12] = system: CC1(C)S[C@@H]2[C@H](NC(=O)[C@H](N)c3ccccc3)C(=O)N2[C@H]1C(=O)O; assay: purified protein, by the assay type; format: biochemical, A. baumannii ATCC 19606; details: other: 20 mM NaHCO3 added, NH = no hydrolysis detected, pH 7.0
Method: as §3, §4

[13] = system: A. baumannii ATCC 19606; assay: MIC, broth microdilution (CLSI); format: cell-based, Acinetobacter baumannii; details: MHBCA
Method: as §1, with “conditions. The resin used for Chelex treatment was always fresh and had never been regenerated, ensuring consistent iron removal.” for “conditions.”
as §2

Chain of AmpC (PDC-5) (P24735 27-397 R79Q/T105A): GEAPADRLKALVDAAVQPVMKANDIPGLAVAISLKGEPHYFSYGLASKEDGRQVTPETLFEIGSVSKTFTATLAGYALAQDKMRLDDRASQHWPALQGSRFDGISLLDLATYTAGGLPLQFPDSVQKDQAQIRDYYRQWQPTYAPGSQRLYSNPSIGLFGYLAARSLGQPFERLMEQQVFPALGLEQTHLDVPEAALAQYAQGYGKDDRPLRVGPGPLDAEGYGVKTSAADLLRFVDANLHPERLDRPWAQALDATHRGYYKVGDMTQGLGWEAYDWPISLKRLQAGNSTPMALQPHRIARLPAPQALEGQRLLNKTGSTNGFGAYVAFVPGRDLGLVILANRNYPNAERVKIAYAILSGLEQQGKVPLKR

Molecule: CN[C@H](CC(C)C)C(=O)N[C@H]1C(=O)N[C@@H](CC(N)=O)C(=O)N[C@H]2C(=O)N[C@H]3C(=O)N[C@H](C(=O)N[C@H](C(=O)O)c4cc(O)cc(O)c4-c4cc3ccc4O)[C@H](O)c3ccc(c(Cl)c3)Oc3cc2cc(c3O[C@@H]2O[C@H](CO)[C@@H](O)[C@H](O)[C@H]2O[C@H]2C[C@](C)(N)[C@H](O)[C@H](C)O2)Oc2ccc(cc2Cl)[C@H]1O [VAN, vancomycin, reference compound]
- MIC (control antibiotics) ([1]; without PAβN): > 128 µg/mL
- MIC (control antibiotic) [2]: 0.5 µg/mL (≈ 0.345 µM)

Molecule: CC[C@H]1OC(=O)[C@H](C)[C@@H](O[C@H]2C[C@@](C)(OC)[C@@H](O)[C@H](C)O2)[C@H](C)[C@@H](O[C@@H]2O[C@H](C)C[C@H](N(C)C)[C@H]2O)[C@](C)(O)C[C@@H](C)C(=O)[C@H](C)[C@@H](O)[C@]1(C)O [ERY, erythromycin]
- MIC ([3]; Escherichia coli): 4 µM (≈ 2.94 µg/mL)
- MIC (control antibiotic) ([3]; deletion of acrAB): 4 µg/mL (≈ 5.45 µM)
- reduction of MIC by deletion of acrAB ([3]; versus parent E. coli): 32 fold
- MIC in combination with PAβN (control antibiotics) [4]: 32 µg/mL
- MIC in combination with PAβN (control antibiotics) ([1]; + 25 µg/mL PAβN): 16 µg/mL

Molecule: CC(C)(O/N=C(\C(=O)N[C@@H]1C(=O)N2C(C(=O)[O-])=C(C[N+]3(CCNC(=O)c4ccc(O)c(O)c4Cl)CCCC3)CS[C@H]12)c1csc(N)n1)C(=O)O [cefiderocol]
- decrease in the IC50 for E. coli PBP3 compared to ceftazidime [5]: 11 fold

Molecule: C[C@H]1COc2c(N3CCN(C)CC3)c(F)cc3c(=O)c(C(=O)O)cn1c23 [LVX, levofloxacin]
- MIC [6]: 16 µM
- MIC ([6]; read-out: MIC (control drug)): 16 µg/mL
- MIC [7]: ≤ 0.06 µM
- MIC ([7]; read-out: MIC (control drug)): ≤ 0.06 µg/mL

Molecule: O=C(Cc1cccs1)N[C@@H]1C(=O)N2C(C(=O)O)=C(/C=C/c3ccc([N+](=O)[O-])cc3[N+](=O)[O-])CS[C@H]12 [NCF, nitrocefin]
- AmpC (PDC-5) Vmax [8]: 121 ± 3 µmol·mg/min
- Km ([8]; read-out: AmpC (PDC-5) Km, Michaelis–Menten curves): 103 ± 4 µM

Molecule: SHV-1 (Klebsiella pneumoniae)
- Km [9]: 25 ± 3 µM
- kcat [9]: 247 ± 48 s⁻¹
- kcat/Km [9]: 9.8e+06 ± 2.3e+06 M⁻¹ s⁻¹
- Km [10]: 164 ± 4 µM
- kcat [10]: 1565 ± 42 s⁻¹
- kcat/Km [10]: 9.5e+06 ± 300000 M⁻¹ s⁻¹

Molecule: OXA-98 (Acinetobacter baumannii ATCC 19606 = CIP 70.34 = JCM 6841)
- Km [11]: 343 ± 10 µM
- kcat [11]: 3.5 ± 0.2 s⁻¹
- kcat/Km [11]: 10000 ± 0 M⁻¹ s⁻¹
- Km [12]: 490 ± 12 µM
- kcat [12]: 22 ± 1 s⁻¹
- kcat/Km [12]: 40000 ± 0 M⁻¹ s⁻¹

Molecule: CO[C@H]1/C=C/O[C@@]2(C)Oc3c(C)c(O)c4c(O)c(c(/C=N/N5CCN(C)CC5)c(O)c4c3C2=O)NC(=O)/C(C)=C\C=C\[C@H](C)[C@H](O)[C@@H](C)[C@@H](O)[C@@H](C)[C@H](OC(C)=O)[C@@H]1C [RIF, rifampicin, reference compound]
- MIC in combination with PAβN (control antibiotics) [4]: 2 µg/mL
- MIC (control antibiotics) ([4]; without PAβN): 16 µg/mL (≈ 19.4 µM)
- MIC in combination with PAβN (control antibiotics) ([13]; + 25 µg/mL PAβN): ≤ 0.012 µg/mL
- MIC (control antibiotics) ([13]; without PAβN): 16 µg/mL (≈ 19.4 µM)
